One may read the EC50 as the concentration that produces a half-maximal response. A high value points to weaker potency.

Here are results for two compounds from article PMC4148180 (Neurobiology of Disease, 2014).

Assay [1] addresses T1, P2Y12 receptor (P2Y12R) (Homo sapiens, UniProt Q9H244). In words: inhibition of forskolin-induced cAMP formation. Type of assay: cell-based.
The target in assay [2] is T1, P2Y12 receptor (P2Y12R). The assay is described as follows: cAMP accumulation assay, rightward shift of 2-methylthio-ADP curve. The class given is cell-based. A general note: Changes in cAMP serve as a functional read-out for many G protein-coupled receptors.

T1 sequence (Q9H244 whole entry): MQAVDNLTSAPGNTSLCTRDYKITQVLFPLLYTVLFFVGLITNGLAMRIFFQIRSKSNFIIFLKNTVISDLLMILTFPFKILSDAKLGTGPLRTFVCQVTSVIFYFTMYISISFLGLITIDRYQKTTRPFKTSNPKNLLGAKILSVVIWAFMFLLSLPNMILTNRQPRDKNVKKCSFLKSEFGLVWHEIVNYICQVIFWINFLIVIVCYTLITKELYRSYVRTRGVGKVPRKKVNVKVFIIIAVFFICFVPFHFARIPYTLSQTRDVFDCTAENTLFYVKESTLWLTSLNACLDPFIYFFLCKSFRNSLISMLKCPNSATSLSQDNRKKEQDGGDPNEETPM

In turn, `CSc1nc(N)c2ncn([C@@H]3O[C@H](COP(=O)(O)OP(=O)(O)O)[C@@H](O)[C@H]3O)c2n1` [2-methylthio-ADP] registered an EC50 on P2Y12 receptor (P2Y12R) [1] of 0.26 nM.

Regarding `Nc1c(S(=O)(=O)O)cc(Nc2ccc(Nc3ccccc3)c(S(=O)(=O)O)c2)c2c1C(=O)c1ccccc1C2=O` [PSB-0739], the Kb on P2Y12 receptor (P2Y12R) [2] is 0.0794 nM.
